Source: ChEMBL document CHEMBL1130955, “Solid-phase synthesis of potential protein tyrosine phosphatase inhibitors via the Ugi four-component condensation” (Bioorg Med Chem Lett, 1998)

Experiment: Compound was tested for the inhibition of PTP-epsilon at the concentration 100 uM

Row | SMILES | inhibition [%]
1 | O=C(NC(C(=O)NCc1ccccc1)c1ccc(Oc2ccccc2)cc1)c1ccc(C(F)(F)P(=O)(O)O)cc1 (stereo not drawn) | > 50
2 | CN(C)c1ccc(C(NC(=O)c2ccc(C(F)(F)P(=O)(O)O)cc2)C(=O)NCc2ccccc2)cc1 (stereo not drawn) | > 50
3 | CCCCCC(NC(=O)c1ccc(C(F)(F)P(=O)(O)O)cc1)C(=O)NCc1ccccc1 (stereo not drawn) | > 50
